“Also recorded” adds a separate entry of the source.
Key:
[1] = test system: LNCaP cells; test: Internalization into LNCaP cells; type: cell-based, human; details: 100 nM, 0–2 hours
[2] = test system: NCr nude mice bearing LNCaP xenografts; test: Mouse tissue distribution, LNCaP xenografts; type: in vivo
[3] = test system: NCr-nu/nu mice bearing PC3 xenografts; test: Mouse tissue distribution, PC3 xenografts; type: in vivo; details: PSMA deficient PC3 xenografts
[4] = test system: mice bearing LNCaP xenografts; test: SPECT/CT imaging, LNCaP xenografts; type: in vivo, mouse; details: 4 hr after injection
[5] = Stability in liver microsomes; type: in vitro ADME; details: data not shown
[6] = Stability in blood plasma; type: in vitro ADME; details: data not shown
[7] = test system: PC3 cells (PSMA negative); test: Direct binding to PC3 cells; details: 3 nM radioligand, 1 hour; PC3 cells lack PSMA
[8] = target: LNCaP cells (PSMA positive) (Homo sapiens, UniProt Q04609); test: Direct binding to LNCaP cells
Chain of LNCaP cells (PSMA positive) (Q04609 whole entry): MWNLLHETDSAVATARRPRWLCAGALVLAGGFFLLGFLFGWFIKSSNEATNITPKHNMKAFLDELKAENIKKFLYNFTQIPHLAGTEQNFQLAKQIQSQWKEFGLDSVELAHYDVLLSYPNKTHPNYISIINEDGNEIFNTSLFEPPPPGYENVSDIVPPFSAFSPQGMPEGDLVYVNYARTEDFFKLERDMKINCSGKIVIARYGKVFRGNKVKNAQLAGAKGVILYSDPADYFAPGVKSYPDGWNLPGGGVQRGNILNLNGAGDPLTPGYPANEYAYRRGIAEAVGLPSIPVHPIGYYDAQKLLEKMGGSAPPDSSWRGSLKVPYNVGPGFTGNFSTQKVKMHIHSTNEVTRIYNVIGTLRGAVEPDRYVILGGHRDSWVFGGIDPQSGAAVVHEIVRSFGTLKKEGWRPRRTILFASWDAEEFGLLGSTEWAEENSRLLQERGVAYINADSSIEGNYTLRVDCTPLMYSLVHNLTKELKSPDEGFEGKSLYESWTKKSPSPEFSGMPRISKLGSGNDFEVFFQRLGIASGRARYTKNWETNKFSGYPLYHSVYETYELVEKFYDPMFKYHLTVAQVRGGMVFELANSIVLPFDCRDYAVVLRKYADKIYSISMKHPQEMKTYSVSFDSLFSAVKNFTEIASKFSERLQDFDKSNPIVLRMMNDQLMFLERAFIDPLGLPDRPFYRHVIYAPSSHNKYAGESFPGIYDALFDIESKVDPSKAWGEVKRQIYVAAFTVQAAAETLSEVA

[9] = test system: PC3 PIP (PSMA +) tumors; test: SPECT/CT imaging, PC3 PIP; details: 2 hr after injection
[10] = co-injected with 50 mg/kg PMPA, 2 hours
[11] = male, athymic NCr-nu/nu, mouse, in vivo
[12] = male, athymic NCr-nu/nu, mouse, in vivo, 0.25 h
[13] = male, athymic NCr-nu/nu, mouse, in vivo, 1 h
[14] = male, athymic NCr-nu/nu, mouse, in vivo, 2 h
[15] = male, athymic NCr-nu/nu, mouse, in vivo, 4 h
[16] = male, athymic NCr-nu/nu, mouse, in vivo, 8 h
[17] = male, athymic NCr-nu/nu, mouse, in vivo, 24 h

For O=C(O)CC[C@H](NC(=O)N[C@@H](CCCCNC(=O)Nc1ccc(I)cc1)C(=O)O)C(=O)O [[^123I]MIP-1095, (S)-2-(3-((S)-1-carboxy-5-(3-(4-iodophenyl)ureido)pentyl)ureido)pentanedioic acid], the “Internalization into LNCaP cells” value ([1]; 4 °C) was “but not at 4 °C”, the “Internalization into LNCaP cells” value ([1]; 37 °C) was “internalized; also recorded: time dependent increase in radioactivity associated with the cellular pellet” and the “Binding to LNCaP tumor xenografts with co-injected PMPA” value [2, 10] was “blocked”. The “Binding to kidneys with co-injected PMPA” value [2, 10] was “blocked”, the “Thyroid content (deiodination)” value [2, 11] was < 1 % of the total injected dose and the “tumor:blood ratio” value [2, 11] was > 100. The “tumor:skeletal muscle ratio” value [2, 11] was > 100, the “Ratio Tumor:Blood” value [2, 12] was 2.10 and the “Ratio Tumor:Skeletal Muscle” value [2, 12] was 8.79. The “Tissue distribution: Adipose” value [2, 12] was 4.67 ± 4 %ID/g, the “Tissue distribution: Blood” value [2, 12] was 3.75 ± 0.7 %ID/g and the “Tissue distribution: Bone” value [2, 12] was 0.9 ± 0.27 %ID/g. For the same compound, the “Tissue distribution: Brain” value [2, 12] was 0.17 ± 0.05 %ID/g, the “Tissue distribution: Heart” value [2, 12] was 2.76 ± 0.54 %ID/g and the “Tissue distribution: Kidneys” value [2, 12] was 52.2 ± 12.2 %ID/g. For the same compound, the “Tissue distribution: Lg Intestine” value [2, 12] was 1.59 ± 1.45 %ID/g, the “Tissue distribution: Liver” value [2, 12] was 8.66 ± 1.54 %ID/g and the “Tissue distribution: Lungs” value [2, 12] was 4.53 ± 0.66 %ID/g. The “Tissue distribution: Sk.Muscle” value [2, 12] was 0.9 ± 0.2 %ID/g, the “Tissue distribution: Sm Intestine” value [2, 12] was 1.78 ± 1.05 %ID/g and the “Tissue distribution: Spleen” value [2, 12] was 9.65 ± 6.44 %ID/g. The “Tissue distribution: Stomach” value [2, 12] was 1.77 ± 0.52 %ID/g, the “Tissue distribution: Testes” value [2, 12] was 1.11 ± 0.51 %ID/g and the “Tissue distribution: Tumor (LNCaP xenograft)” value (shortened to “Tissue distribution: Tumor”) [2, 12] was 7.9 ± 2.43 %ID/g. The “Ratio Tumor:Blood” value [2, 13] was 10.6, the “Ratio Tumor:Skeletal Muscle” value [2, 13] was 49.3 and the “Tissue distribution: Adipose” value [2, 13] was 2.34 ± 0.48 %ID/g. For the same compound, the “Tissue distribution: Blood” value [2, 13] was 1.95 ± 0.23 %ID/g, the “Tissue distribution: Bone” value [2, 13] was 0.55 ± 0.04 %ID/g and the “Tissue distribution: Brain” value [2, 13] was 0.06 ± 0.03 %ID/g. For the same compound, the “Tissue distribution: Heart” value [2, 13] was 1.31 ± 0.22 %ID/g, the “Tissue distribution: Kidneys” value [2, 13] was 65.3 ± 7.5 %ID/g and the “Tissue distribution: Lg Intestine” value [2, 13] was 0.87 ± 0.38 %ID/g. For the same compound, the “Tissue distribution: Liver” value [2, 13] was 11.3 ± 1.3 %ID/g, the “Tissue distribution: Lungs” value [2, 13] was 3.22 ± 0.68 %ID/g and the “Tissue distribution: Sk.Muscle” value [2, 13] was 0.42 ± 0.03 %ID/g. For the same compound, the “Tissue distribution: Sm Intestine” value [2, 13] was 4.4 ± 0.55 %ID/g, the “Tissue distribution: Spleen” value [2, 13] was 4.57 ± 0.77 %ID/g and the “Tissue distribution: Stomach” value [2, 13] was 3.02 ± 0.47 %ID/g. The “Tissue distribution: Testes” value [2, 13] was 0.86 ± 0.18 %ID/g, the “Tissue distribution: Tumor” value [2, 13] was 20.7 ± 5.8 %ID/g and the “Ratio Tumor:Blood” value [2, 14] was 24.3. The “Ratio Tumor:Skeletal Muscle” value [2, 14] was 80.8, the “Tissue distribution: Adipose” value [2, 14] was 1.68 ± 1.15 %ID/g and the “Tissue distribution: Blood” value [2, 14] was 1.12 ± 0.48 %ID/g. For the same compound, the “Tissue distribution: Bone” value [2, 14] was 0.36 ± 0.11 %ID/g, the “Tissue distribution: Brain” value [2, 14] was 0.06 ± 0.02 %ID/g and the “Tissue distribution: Heart” value [2, 14] was 0.78 ± 0.28 %ID/g. The “Tissue distribution: Kidneys” value [2, 14] was 88.7 ± 23.8 %ID/g, the “Tissue distribution: Lg Intestine” value [2, 14] was 4 ± 2.82 %ID/g and the “Tissue distribution: Liver” value [2, 14] was 9.94 ± 2.53 %ID/g. The “Tissue distribution: Lungs” value [2, 14] was 2.3 ± 1.02 %ID/g, the “Tissue distribution: Sk.Muscle” value [2, 14] was 0.34 ± 0.17 %ID/g and the “Tissue distribution: Sm Intestine” value [2, 14] was 4.67 ± 0.86 %ID/g. For the same compound, the “Tissue distribution: Spleen” value [2, 14] was 3.73 ± 1.46 %ID/g, the “Tissue distribution: Stomach” value [2, 14] was 2.33 ± 1.79 %ID/g and the “Tissue distribution: Testes” value [2, 14] was 1.27 ± 0.31 %ID/g. For the same compound, the “Tissue distribution: Tumor” value [2, 14] was 27.3 ± 3.4 %ID/g, the “Ratio Tumor:Blood” value [2, 15] was 40.6 and the “Ratio Tumor:Skeletal Muscle” value [2, 15] was 133. The “Tissue distribution: Adipose” value [2, 15] was 0.86 ± 0.43 %ID/g, the “Tissue distribution: Blood” value [2, 15] was 0.84 ± 0.23 %ID/g and the “Tissue distribution: Bone” value [2, 15] was 0.25 ± 0.04 %ID/g. For the same compound, the “Tissue distribution: Brain” value [2, 15] was 0.44 ± 0.91 %ID/g, the “Tissue distribution: Heart” value [2, 15] was 0.53 ± 0.09 %ID/g and the “Tissue distribution: Kidneys” value [2, 15] was 77.5 ± 16.6 %ID/g. The “Tissue distribution: Lg Intestine” value [2, 15] was 7.55 ± 7.69 %ID/g, the “Tissue distribution: Liver” value [2, 15] was 7.82 ± 1.01 %ID/g and the “Tissue distribution: Lungs” value [2, 15] was 1.6 ± 0.53 %ID/g. For the same compound, the “Tissue distribution: Sm Intestine” value [2, 15] was 6.64 ± 3.19 %ID/g, the “Tissue distribution: Spleen” value [2, 15] was 2.06 ± 0.63 %ID/g and the “Tissue distribution: Stomach” value [2, 15] was 4.09 ± 1.36 %ID/g. The “Tissue distribution: Testes” value [2, 15] was 0.84 ± 0.18 %ID/g, the “Ratio Tumor:Blood” value [2, 16] was 57.5 and the “Ratio Tumor:Skeletal Muscle” value [2, 16] was 121. For the same compound, the “Tissue distribution: Adipose” value [2, 16] was 2.63 ± 4.66 %ID/g, the “Tissue distribution: Blood” value [2, 16] was 0.49 ± 0.21 %ID/g and the “Tissue distribution: Bone” value [2, 16] was 0.28 ± 0.13 %ID/g. The “Tissue distribution: Brain” value [2, 16] was 0.07 ± 0.02 %ID/g, the “Tissue distribution: Heart” value [2, 16] was 0.38 ± 0.12 %ID/g and the “Tissue distribution: Kidneys” value [2, 16] was 54.8 ± 19.1 %ID/g. For the same compound, the “Tissue distribution: Lg Intestine” value [2, 16] was 12.28 ± 5.35 %ID/g, the “Tissue distribution: Liver” value [2, 16] was 3.79 ± 0.87 %ID/g and the “Tissue distribution: Lungs” value [2, 16] was 1.53 ± 1 %ID/g. The “Tissue distribution: Sk.Muscle” value [2, 16] was 0.23 ± 0.13 %ID/g, the “Tissue distribution: Sm Intestine” value [2, 16] was 3.66 ± 0.9 %ID/g and the “Tissue distribution: Spleen” value [2, 16] was 1.34 ± 0.63 %ID/g. For the same compound, the “Tissue distribution: Stomach” value [2, 16] was 4.43 ± 2.28 %ID/g, the “Tissue distribution: Testes” value [2, 16] was 0.6 ± 0.12 %ID/g and the “Tissue distribution: Tumor” value [2, 16] was 28.1 ± 12.8 %ID/g. For the same compound, the “Ratio Tumor:Blood” value [2, 17] was 174, the “Ratio Tumor:Skeletal Muscle” value [2, 17] was 304 and the “Tissue distribution: Adipose” value [2, 17] was 0.52 ± 0.25 %ID/g. For the same compound, the “Tissue distribution: Blood” value [2, 17] was 0.17 ± 0.1 %ID/g, the “Tissue distribution: Bone” value [2, 17] was 0.27 ± 0.19 %ID/g and the “Tissue distribution: Brain” value [2, 17] was 0.03 ± 0.01 %ID/g. The “Tissue distribution: Heart” value [2, 17] was 0.15 ± 0.08 %ID/g, the “Tissue distribution: Kidneys” value [2, 17] was 27 ± 26.2 %ID/g and the “Tissue distribution: Lg Intestine” value [2, 17] was 4.49 ± 3.09 %ID/g. For the same compound, the “Tissue distribution: Liver” value [2, 17] was 1.31 ± 0.63 %ID/g, the “Tissue distribution: Lungs” value [2, 17] was 0.55 ± 0.42 %ID/g and the “Tissue distribution: Sk.Muscle” value [2, 17] was 0.1 ± 0.04 %ID/g. For the same compound, the “Tissue distribution: Sm Intestine” value [2, 17] was 0.76 ± 0.48 %ID/g, the “Tissue distribution: Spleen” value [2, 17] was 0.45 ± 0.29 %ID/g and the “Tissue distribution: Stomach” value [2, 17] was 1.15 ± 1.2 %ID/g. The “Tissue distribution: Testes” value [2, 17] was 0.27 ± 0.23 %ID/g, the “Tissue distribution: Tumor” value [2, 17] was 29.1 ± 15.1 %ID/g and the Blood-brain barrier crossing ([2]; mouse, in vivo) was “do not cross the blood-brain barrier”. For the same compound, the Route of clearance ([2]; mouse, in vivo) was “by both urinary and hepatobiliary routes”, the “Localization to PC3 tumors” value [3] was “not to the PSMA deficient PC3 tumors” and the “SPECT/CT uptake in kidney and LNCaP tumor” value [4] was “high uptake”. For the same compound, the “Stability in liver microsomes” value [5] was “stable”, the “Stability in blood plasma” value [6] was “stable” and the “Binding to PC3 cells” value [7] was “no binding; also recorded: not to the PSMA deficient PC3 cells”. The “Binding to LNCaP cells in the presence of non-radiolabeled compound or PMPA” value ([8]; 3 nM radioligand with 10 µM non-radiolabeled compound or 10 µM PMPA) was “abolished; also recorded: inhibited”, the “Binding to LNCaP cells” value ([8]; 3 nM radioligand, 1 hour, room temperature) was “bound” and the “SPECT/CT detection of PC3 PIP (PSMA +) tumors” value [9] was “detected”.
